Data taken from patent publication US20150164762A1, “USE OF ETHANOLAMINE PHOSPHATE” (priority 2012, published 2015).

Tested on: BEAS-2B
Assay: Comprehensive gene expression analysis with Whole Human Genome DNA microarray after EP treatment
Assay type: cell-based
Experimental: Cells of the established normal human airway epithelial cell line BEAS-2B were used in the experiment. These cells were expansively cultured in 10% FBS RPMI-1640, and seeded at a density of 1×10^5/cm^2 on a 24-well plate. After 24 hours 0.1% FBS RPMI-1640 was substituted, and EP was administered to a final concentration of 0 or 1 mM (n=4). After 24 hours, the cells were used as the DNA microarray samples. RNA was extracted using a QIAGEN RNeasy Mini Kit. The DNA microarray test was performed using a Whole Human Genome DNA microarray 4×44K (Agilent), and the necessary labeling reagents and the like for the DNA microarray test were all from Agilent. The DNA microarray test data were analyzed statistically with GeneSpring (Agilent) dedicated analysis software, and gene function analysis (Gene Ontology (GO) analysis) was performed based on differential expression. The purpose of the GO analysis is to determine stochastically the degree to which gene sets with statistically significant differential expression correspond to known functional classification gene sets. […] The p-value is calculated according to the following formula.

[1] = probe A_24_P215804, 1 mM EP, 24 h
[2] = probe A_24_P218265, 1 mM EP, 24 h
[3] = probe A_24_P226782, 1 mM EP, 24 h
[4] = probe A_24_P231104, 1 mM EP, 24 h
[5] = probe A_24_P261169, 1 mM EP, 24 h
[6] = probe A_24_P273157, 1 mM EP, 24 h
[7] = probe A_24_P295543, 1 mM EP, 24 h
[8] = probe A_24_P302833, 1 mM EP, 24 h
[9] = probe A_24_P307580, NM_001098523, EP vs control
[10] = probe A_24_P313354, 1 mM EP, 24 h
[11] = probe A_24_P313504, 1 mM EP, 24 h
[12] = probe A_24_P317708, NM_138969, EP vs control
[13] = probe A_24_P319113, 1 mM EP, 24 h
[14] = probe A_24_P319983, 1 mM EP, 24 h
[15] = probe A_24_P388659, 1 mM EP, 24 h
[16] = probe A_24_P389409, NM_006129, EP vs control
[17] = probe A_24_P389457, 1 mM EP, 24 h
[18] = probe A_24_P413470, 1 mM EP, 24 h
[19] = probe A_24_P722216, NM_018706, EP vs control
[20] = probe A_24_P839629, 1 mM EP, 24 h
[21] = probe A_24_P876522, NM_001008397, EP vs control
[22] = probe A_24_P914519, S67289, EP vs control
[23] = probe A_24_P928052, 1 mM EP, 24 h
[24] = probe A_24_P934477, AJ000096, EP vs control
[25] = probe A_24_P935986, 1 mM EP, 24 h
[26] = probe A_24_P937256, 1 mM EP, 24 h
[27] = probe A_24_P937317, NM_001014336, EP vs control
[28] = probe A_24_P3305312, 1 mM EP, 24 h
[29] = probe A_24_P9284523, 1 mM EP, 24 h
[30] = probe A_32_P45009, NM_005896, EP vs control
[31] = probe A_32_P75094, 1 mM EP, 24 h
[32] = probe A_32_P89691, NM_003104, EP vs control
[33] = probe A_32_P94798, 1 mM EP, 24 h
[34] = probe A_32_P171043, 1 mM EP, 24 h
[35] = probe A_32_P230808, 1 mM EP, 24 h

NCCOP(=O)(O)O [EP, Ethanolamine phosphate]
CKLF expression R*: Ratio to control [1]: 1.551 times | CKLF expression log2 [ratio] [1]: 0.633 | TNFRSF10B expression R*: Ratio to control [2]: 0.475 times | TNFRSF10B expression log2 [ratio] [2]: −1.073 | SOX7 expression R: Ratio to control [3]: 0.607 times | SOX7 expression log2 [ratio] [3]: −0.720 | LEPR expression R*: Ratio to control [4]: 1.659 times | LEPR expression log2 [ratio] [4]: 0.730 | SEMA4D expression R: Ratio to control [5]: 0.558 times | SEMA4D expression log2 [ratio] [5]: −0.842 | OBSCN expression R: Ratio to control [6]: 0.654 times | OBSCN expression log2 [ratio] [6]: −0.613 | BLOC1S2 expression R*: Ratio to control [7]: 0.384 times | BLOC1S2 expression log2 [ratio] [7]: −1.381 | APPL1 expression R*: Ratio to control [8]: 1.723 times | APPL1 expression log2 [ratio] [8]: 0.785 | HTATIP2 gene expression, R* ratio to control [9]: 1.821 times | HTATIP2 gene expression, log2 [ratio] [9]: 0.865 | NR2F2 expression R*: Ratio to control [10]: 1.746 times | NR2F2 expression log2 [ratio] [10]: 0.804 | PLK1 expression R*: Ratio to control [11]: 1.939 times | PLK1 expression log2 [ratio] [11]: 0.955 | SDR16C5 gene expression, R* ratio to control [12]: 2.349 times | SDR16C5 gene expression, log2 [ratio] [12]: 1.232 | P2RX7 expression R: Ratio to control [13]: 0.586 times | P2RX7 expression log2 [ratio] [13]: −0.772 | BCL10 expression R*: Ratio to control [14]: 0.571 times | BCL10 expression log2 [ratio] [14]: −0.310 | ARHGAP24 expression R*: Ratio to control [15]: 1.745 times | ARHGAP24 expression log2 [ratio] [15]: 0.803 | BMP1 gene expression, R* ratio to control [16]: 0.650 times | BMP1 gene expression, log2 [ratio] [16]: −0.622 | CDKN1A expression R*: Ratio to control [17]: 0.294 times | CDKN1A expression log2 [ratio] [17]: −1.768 | TP73 expression R*: Ratio to control [18]: 0.482 times | TP73 expression log2 [ratio] [18]: −1.054 | DHTKD1 gene expression, R* ratio to control [19]: 1.429 times | DHTKD1 gene expression, log2 [ratio] [19]: 0.515 | ZMAT3 expression R*: Ratio to control [20]: 0.654 times | ZMAT3 expression log2 [ratio] [20]: −0.612 | GPX8 gene expression, R* ratio to control [21]: 1.602 times | GPX8 gene expression, log2 [ratio] [21]: 0.680 | CYBB gene expression, R* ratio to control [22]: 1.958 times | CYBB gene expression, log2 [ratio] [22]: 0.968 | NRP1 expression R*: Ratio to control [23]: 1.990 times | NRP1 expression log2 [ratio] [23]: 0.993 | CBR3 gene expression, R* ratio to control [24]: 2.429 times | CBR3 gene expression, log2 [ratio] [24]: 1.281 | BCAT1 expression R*: Ratio to control [25]: 1.721 times | BCAT1 expression log2 [ratio] [25]: 0.783 | RELA expression R*: Ratio to control [26]: 1.611 times | RELA expression log2 [ratio] [26]: 0.688 | IL31 gene expression, R* ratio to control [27]: 0.296 times | IL31 gene expression, log2 [ratio] [27]: −1.758 | BBC3 expression R*: Ratio to control [28]: 0.366 times | BBC3 expression log2 [ratio] [28]: −1.452 | MAP3K10 expression R*: Ratio to control [29]: 0.570 times | MAP3K10 expression log2 [ratio] [29]: −0.810 | IDH1 gene expression, R* ratio to control [30]: 1.486 times | IDH1 gene expression, log2 [ratio] [30]: 0.571 | A1FM2 expression R*: Ratio to control [31]: 0.399 times | A1FM2 expression log2 [ratio] [31]: −1.327 | SORD gene expression, R* ratio to control [32]: 1.506 times | SORD gene expression, log2 [ratio] [32]: 0.590 | ANXA2 expression R*: Ratio to control [33]: 1.614 times | ANXA2 expression log2 [ratio] [33]: 0.691 | CCBE1 expression R*: Ratio to control [34]: 1.890 times | CCBE1 expression log2 [ratio] [34]: 0.918 | KNG1 expression R*: Ratio to control [35]: 0.358 times | KNG1 expression log2 [ratio] [35]: −1.484 | FAS expression (probe A—23_P63896, 1 mM EP, 24 h): 0.36 fold | catalase (CAT) expression (probe A—23_P105138, 1 mM EP, 24 h): increased expression | NADPH:quinone reductase-1 (NQ01) expression (probe A—23_P206661, 1 mM EP, 24 h): increased expression | thioredoxin (TXN) expression increase (probe A—24_P175519, 1 mM EP, 24 h): 1.4 times
